Assay results taken from US20180153868A1, “TREATMENT OF BREAST CANCER BY CONCOMITANT ADMINISTRATION OF A BROMODOMAIN INHIBITOR AND A SECOND AGENT” (Gilead Sciences, Inc., priority 2016, published 2018).
Like-named read-outs stand apart in the source and are kept apart here. Blank lines part the entries; values can stand above or below the compound they belong to.

What was measured:
Assay type in all cases: cell-based
ER = ER protein expression in MCF7 and T47D (FIG. 1); conditions: 24 hours
Excerpt: (§1) ER, when bound by estrogen or […] such as fulvestrant, undergoes a conformational change that promotes ubiquitination and degradation of the receptor.

[1] = system: ER targets GREB1, MYC, and PGR; assay: Protein expression of ER targets in MCF7 and T47D (FIG. 1); conditions: 24 hours
Excerpt: as §1

MCF7 [2] = assay: Cell viability assay (Cell Titer-Glo), MCF7; conditions: for EC50: Homo sapiens, 72 hours
Protocol: (§2) The cell viability was determined using the Cell Titer-Glo luminescent cell viability assay, according to the manufacturer's instructions. Luminescence was measured using a PHERAstar FS microplate reader (BMG LABTECH, German). The half-maximal inhibitory concentration (IC50) values were calculated using the prism plot software. The effects of treatments were measured by conducting three independent experiments.

MCF7 [3] = assay: Colony formation / survival assay, MCF7; conditions: 7 days
Protocol: (§3) Colony Formation or Survival Asasys: Cells were seeded in 12-well plates in triplicates at a density of 600 cells per well for MCF7 and 800 cells per well for T47D cells. Cells were treated after overnight incubated. Medium was changed every 3-4 days until cluster of colonies were formed. The plates were incubated for 7 days for MCF7 cells and xx days for T47D cells. Colonies in the plate were fixed and stained with Formaldehyde (1.0% v/v), Methanol (1%) and crystal violet (1% w/v) for xx min; thoroughly washed with water and air dry and counted using with automated colony counter (Gel counter. OXFORD OPTRONIC Inc). Results are present as average colony count ±SD.
(§4) Impact on cell growth can also be evaluated in colony survival assays. To evaluate the effect of compound (I-1) on colony survival, MCF7 and T47D were plated at low density and treated with several doses of compound (I-1) alone and in combination with fulvestrant. The number of colonies formed after 7 days in culture was evaluated (FIG. 9). […] In the presence of fulvestrant, colony number was reduced 73%, and 20 nM compound (I-1) further reduced colony number by 92%. […] In the presence of fulvestrant, colony number was reduced 41%.

T47D [4] = assay: Cell viability assay (Cell Titer-Glo), T47D; conditions: for EC50: Homo sapiens, 96 hours
Protocol: as §2

T47D [5] = assay: Colony formation / survival assay, T47D
Protocol: as §3, §4

[6] = compound (I-1) alone, read-out: average EC50, cell viability
[7] = in the presence of fulvestrant, read-out: EC50, cell viability
[8] = 20 nM compound (I-1) in the presence of fulvestrant
[9] = single agent fulvestrant treatment

EC50 (MCF7 [2]; [6]): 61.3 ± 8.4 nM
EC50 (MCF7 [2]; [7]): 25 ± 10.6 nM
increase in potency (EC50 alone vs in combination with fulvestrant) (MCF7 [2]; p value 0.00027): 2.5 fold
EC50 (T47D [4]; [6]): 95.3 ± 16.5 nM
EC50 (T47D [4]; [7]): 64 ± 5 nM
increase in potency (EC50 alone vs in combination with fulvestrant) (T47D [4]; p value 0.0030): 1.5 fold
Compound: Cc1noc(C)c1-c1cc(C(O)(c2ccccn2)c2ccccn2)c2nc(C3CC3)[nH]c2c1 [compound (I-1), (2-cyclopropyl-6-(3,5-dimethylisoxazol-4-yl)-1H-benzo[d]imidazol-4-yl)di(pyridin-2-yl)methanol]
ER protein expression (ER; 100 or 50 nM compound (I-1) added under estrogen or fulvestrant treatments): further reduced ER protein expression
ER target (GREB1, MYC, PGR) expression ([1]; addition of 50 or 100 nM compound (I-1)): consistently reduced target expression
ER target (GREB1, MYC, PGR) protein reduction ([1]; combination of fulvestrant and compound (I-1)): most pronounced protein reduction
reduced colony number (MCF7 [3]; 20 nM compound (I-1) alone): 48%
further reduced colony number (MCF7 [3]; [8]): 92%
effect on colonies (MCF7 [3]; 60 nM compound (I-1) alone): nearly all colonies eliminated
effect on colonies (MCF7 [3]; 120 nM compound (I-1) alone): nearly all colonies eliminated
effect on colony number (T47D [5]; 20 nM compound (I-1) alone): no significant effect
effect on colony number (T47D [5]; [8]): no significant effect
reduced colony number (T47D [5]; 60 nM compound (I-1) alone): 53%
further reduced colony number (T47D [5]; 60 nM compound (I-1) in the presence of fulvestrant): 66%
reduced colony number (T47D [5]; 120 nM compound (I-1) alone): 60%
further reduced colony number (T47D [5]; 120 nM compound (I-1) in the presence of fulvestrant): 78%

Compound: C[C@]12CC[C@@H]3c4ccc(O)cc4C[C@@H](CCCCCCCCC[S+]([O-])CCCC(F)(F)C(F)(F)F)[C@H]3[C@@H]1CC[C@@H]2O (stereo partly shown) [fulvestrant, reference compound]
ER protein levels (ER; 12 nM Fulvestrant): reduced ER protein levels
estrogen induction of GREB1, MYC, PGR protein expression ([1]; in the presence of fulvestrant (12 nM)): significantly reduced
reduced growth (average) (MCF7 [2]; [9]): 47.0±19.6%
colony number reduced (MCF7 [3]; fulvestrant alone): 73%
reduced growth (average) (T47D [4]; [9]): 35.8±5.0%
colony number reduced (T47D [5]; fulvestrant alone): 41%
